± gives the standard deviation of the averaged measurements.
Columns and labels:
[1] = compound: CCOC(=O)CC(=O)C(F)(F)C(F)(F)F [Ethyl pentafluoropropionyl acetate] (in DMSO); test: level (log10 ratio to DMSO vehicle control); higher = higher biomarker level / cell amount than vehicle control
Experimental: (§1)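 BioMAP Diversity Plus panel of 12 human primary cell co-culture systems (3C, 4H, LPS, SAg, BT, BF4T, BE3C, CASM3C, HDF3CGF, KF3CT, MyoF, Mphg). Compounds were added 1 h before stimulation and left for 24 h (MyoF 48 h; BT 72 h for soluble read-outs or 6 d for IgG). Biomarkers were read by ELISA, cytotoxicity by SRB, PBMC viability and proliferation by Alamar Blue. Each well value was divided by the mean of 8 DMSO control wells on the same plate and log10 transformed; duplicate blinded samples were tested at 4 concentrations.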

[2] = compound: OCC(F)(F)C(F)(F)C(F)(F)C(F)(F)C(F)(F)C(F)(F)CO [1H,1H,8H,8H-Perfluorooctane-1,8-diol] (in DMSO); test: as above
Experimental: as §1

Row | Test System | level (log10) ([1]; 6700 nM) | level (log10) ([1]; 20000 nM) | level (log10) ([1]; 60000 nM) | level (log10) ([2]; 6700 nM) | level (log10) ([2]; 20000 nM) | level (log10) ([2]; 60000 nM)
1 | HDF3CGF:PAI-I | -0.01 ± 0.025 | 0.004 ± 0.024 | 0.031 ± 0.062 | -0.0085 ± 0.0092 | -0.026 ± 0.0057 | -0.023 ± 0.017
2 | HDF3CGF:Proliferation 72hr | -0.019 ± 0.073 | -0.017 ± 0.092 | 0.036 ± 0.017 | -0.04 ± 0.013 | -0.0035 ± 0.026 | -0.102 ± 0.027
3 | HDF3CGF:SRB | 0.007 ± 0.027 | -0.0005 ± 0.032 | 0.0025 ± 0.021 | -0.043 ± 0.052 | -0.0135 ± 0.056 | -0.0405 ± 0.1
4 | HDF3CGF:TIMP-1 | -0.0085 ± 0.037 | -0.007 ± 0.0071 | -0.0305 ± 0.012 | -0.002 ± 0.0071 | -0.003 ± 0.0085 | 0.019 ± 0.025
5 | HDF3CGF:TIMP-2 | -0.05 ± 0.044 | -0.012 ± 0.024 | -0.069 ± 0.011 | 0.003 ± 0.0014 | 0.0255 ± 0.0035 | 0.0145 ± 0.00071
6 | KF3CT:CCL2/MCP-1 | -0.0355 ± 0.0064 | -0.045 ± 0.035 | 0.001 ± 0.071 | -0.017 ± 0.0099 | -0.0235 ± 0.03 | 0.0005 ± 0.081
7 | KF3CT:CD54/ICAM-1 | -0.003 ± 0.024 | 0.006 ± 0.014 | 0.0075 ± 0.03 | -0.009 ± 0.0042 | 0.0015 ± 0.0092 | -0.01 ± 0.018
8 | KF3CT:CXCL8/IL-8 | -0.012 ± 0.018 | -0.0155 ± 0.0021 | -0.0005 ± 0.029 | -0.0015 ± 0.019 | -0.0215 ± 0.023 | 0
9 | KF3CT:CXCL9/MIG | 0.002 ± 0.0028 | 0.0015 ± 0.0078 | -0.0025 ± 0.0064 | 0.007 ± 0.011 | 0.0025 ± 0.00071 | 0.0105 ± 0.005
10 | KF3CT:CXCL10/IP-10 | -0.002 ± 0.013 | -0.009 ± 0.0057 | -0.009 ± 0.0071 | -0.003 ± 0.0028 | -0.001 ± 0.014 | -0.009 ± 0.0085
11 | KF3CT:IL-1alpha | -0.021 ± 0.011 | -0.0345 ± 0.022 | -0.001 ± 0.031 | -0.0085 ± 0.022 | -0.0095 ± 0.0064 | 0.0225 ± 0.057
12 | KF3CT:MMP-9 | -0.0165 ± 0.013 | -0.0005 ± 0.012 | -0.011 ± 0.0099 | -0.003 ± 0.0028 | 0.009 ± 0.0014 | 0.058 ± 0.0099
13 | KF3CT:PAI-I | -0.02 ± 0.023 | -0.01 ± 0.035 | -0.0055 ± 0.026 | -0.004 ± 0.0085 | -0.008 ± 0.0071 | -0.0155 ± 0.0021
14 | KF3CT:SRB | -0.002 | 0.0005 ± 0.0035 | -0.004 ± 0.0014 | -0.003 | -0.004 ± 0.0085 | -0.0085 ± 0.0092
15 | KF3CT:TIMP-2 | 0.004 ± 0.011 | -0.0105 ± 0.0078 | 0.0175 ± 0.0035 | 0.0065 ± 0.042 | -0.0055 ± 0.018 | -0.006 ± 0.016
16 | KF3CT:uPA | 0.01 ± 0.018 | 0.0095 ± 0.016 | -0.006 ± 0.023 | 0.0085 ± 0.0078 | -0.017 ± 0.02 | -0.0115 ± 0.011
17 | MyoF:CD106/VCAM-1 | -0.0125 ± 0.012 | -0.012 ± 0.023 | -0.0105 ± 0.021 | -0.0045 ± 0.0035 | 0.0105 ± 0.0021 | 0.0295 ± 0.011
18 | MyoF:CXCL8/IL-8 | -0.007 ± 0.018 | -0.0025 ± 0.021 | 0.0105 ± 0.029 | 0 ± 0.0085 | 0.004 ± 0.025 | 0 ± 0.034
19 | MyoF:Collagen I | -0.0085 ± 0.026 | -0.0155 ± 0.036 | -0.014 ± 0.041 | -0.0045 ± 0.025 | -0.0165 ± 0.013 | -0.0145 ± 0.0035
20 | MyoF:Collagen III | -0.0045 ± 0.016 | -0.0045 ± 0.011 | -0.009 ± 0.0042 | -0.008 ± 0.013 | -0.016 | -0.005 ± 0.0028

Row | Test System | level (log10) ([1]; 6700 nM) | level (log10) ([1]; 20000 nM) | level (log10) ([1]; 60000 nM) | level (log10) ([2]; 6700 nM) | level (log10) ([2]; 20000 nM) | level (log10) ([2]; 60000 nM)
21 | MyoF:Collagen IV | 0.0045 ± 0.018 | 0.01 ± 0.0028 | 0.0045 ± 0.018 | -0.014 ± 0.0057 | -0.0115 ± 0.005 | -0.011 ± 0.042
22 | MyoF:Decorin | -0.0135 ± 0.026 | -0.0025 ± 0.016 | 0.023 ± 0.014 | -0.006 ± 0.0085 | 0.0195 ± 0.013 | 0.0325 ± 0.016
23 | MyoF:MMP-1 | -0.0245 ± 0.03 | -0.0125 ± 0.011 | 0.034 ± 0.058 | -0.02 ± 0.031 | -0.0145 ± 0.022 | 0.028 ± 0.12
24 | MyoF:PAI-I | -0.0005 ± 0.021 | 0.006 ± 0.017 | 0.0055 ± 0.015 | -0.0015 ± 0.0064 | -0.004 ± 0.0028 | 0.0005 ± 0.011
25 | MyoF:SRB | -0.001 ± 0.0028 | -0.0065 ± 0.00071 | -0.0045 ± 0.00071 | -0.0095 ± 0.012 | -0.0145 ± 0.0064 | -0.0305 ± 0.0021
26 | MyoF:TIMP-1 | -0.005 ± 0.023 | -0.012 ± 0.023 | 0.0125 ± 0.022 | -0.0125 ± 0.042 | 0.0285 ± 0.042 | 0.0735 ± 0.035
27 | MyoF:alpha-SM Actin | -0.0145 ± 0.03 | -0.0235 ± 0.0078 | -0.019 ± 0.013 | 0.0075 ± 0.005 | 0.0035 ± 0.011 | -0.005 ± 0.0028
28 | MyoF:bFGF | -0.0045 ± 0.0064 | 0.0015 ± 0.0021 | 0.0135 ± 0.012 | 0.009 ± 0.014 | 0.0145 ± 0.0021 | 0.014 ± 0.014
29 | lMphg:CCL2/MCP-1 | -0.023 ± 0.045 | -0.0135 ± 0.021 | 0.0125 ± 0.037 | -0.017 ± 0.0071 | -0.005 ± 0.0042 | 0.008 ± 0.031
30 | lMphg:CCL3/MIP-1alpha | -0.0265 ± 0.026 | -0.0305 ± 0.0078 | 0.0075 ± 0.022 | -0.023 ± 0.0014 | -0.016 ± 0.0085 | 0.018 ± 0.025
31 | lMphg:CD40 | -0.0205 ± 0.0092 | -0.0135 ± 0.0092 | 0.003 ± 0.061 | -0.0015 ± 0.018 | -0.028 ± 0.013 | -0.0405 ± 0.0078
32 | lMphg:CD62E/E-Selectin | -0.036 ± 0.02 | -0.0245 ± 0.012 | 0.0115 ± 0.025 | -0.0195 ± 0.028 | -0.004 ± 0.013 | -0.0075 ± 0.0064
33 | lMphg:CD69 | -0.0405 ± 0.0064 | 0.0005 ± 0.064 | 0.0075 ± 0.12 | -0.0165 ± 0.036 | -0.024 ± 0.025 | 0.001 ± 0.038
34 | lMphg:CD106/VCAM-1 | -0.023 ± 0.0028 | 0.013 ± 0.0028 | 0.0195 ± 0.005 | -0.024 ± 0.041 | -0.0125 ± 0.033 | -0.003 ± 0.048
35 | lMphg:CXCL8/IL-8 | -0.0295 ± 0.023 | -0.01 ± 0.0042 | 0.0095 ± 0.049 | -0.0085 ± 0.074 | -0.03 ± 0.028 | 0.011 ± 0.034
36 | lMphg:IL-1alpha | -0.0145 ± 0.011 | -0.016 ± 0.024 | 0.0045 ± 0.0092 | -0.011 ± 0.041 | -0.012 ± 0.0085 | 0.0855 ± 0.047
37 | lMphg:M-CSF | -0.01 ± 0.0099 | -0.001 ± 0.028 | 0.005 ± 0.0014 | -0.015 ± 0.013 | -0.013 ± 0.016 | 0.013 ± 0.067
38 | lMphg:SRB | 0.005 ± 0.0071 | -0.0005 ± 0.0078 | 0.0055 ± 0.0035 | -0.0125 ± 0.0078 | -0.0115 ± 0.018 | -0.0245 ± 0.00071
39 | lMphg:SRB-Mphg | -0.0015 ± 0.018 | -0.0055 ± 0.005 | -0.012 ± 0.02 | -0.053 ± 0.079 | -0.031 ± 0.014 | -0.018 ± 0.027
40 | lMphg:sIL-10 | -0.0405 ± 0.012 | -0.0435 ± 0.035 | -0.0305 ± 0.022 | -0.175 ± 0.042 | -0.17 ± 0.037 | -0.216 ± 0.0057
